# Laboratory results: patent US20200345689A1, “METHODS AND CO[…] RRx-001 FOR RADIOPROTECTION” (EpicentRx, Inc., priority 2018, published 2020)
# How the values were obtained:
# [1] = test system: human monocytic leukemic THP-1 cells; assay: Cytokine array of irradiated THP-1 monocytes and macrophages; assay type: cell-based
# Experimental: A cytokine array was employed to examine cytokine expression following in vitro irradiation of human monocytic leukemic THP-1 cells. THP-1 cells were differentiated into macrophages with 50 nM Phorbol 12-myristate 13-acetate (PMA) for 24 hours before treatment. Differentiated and non-differentiated cells were treated with […] RRx-001 or 0.05% DMSO (vehicle control) for 16 hours prior to radiation. The cells were irradiated at 5 Gy or sham-irradiated and collected 4-8 hours later for both analysis. For the cytokine analysis, cell media was collected and blotted onto Proteome Profiler Human Cytokine Arrays (R&D Systems, Inc.) according to the manufacturer's protocol.
# CD2F1 male mice = assay: Complete blood count with differential and reticulocytes after sublethal TBI or sham irradiation; assay type: in vivo
# Experimental: To determine the pathophysiological effects of RRx-001 on hematopoietic protection in mice, CD2F1 male mice were treated with 10 mg/kg RRx-001 or the vehicle control 24 hours prior to a sublethal dose of TBI (7 Gy at 0.6 Gy/min using High-level Cobalt-60) or sham irradiation (day 0) according to the table below.
# CD2F1 male mice (n=3/group) were divided into 4 experimental groups: 1) irradiation+vehicle, 2) irradiation+RRx-001, 3) sham-irradiation+vehicle and 4) sham-irradiation+RRx-001. Either 10 mg/kg RRx-001 or the vehicle control were IP injected 24 hours prior to either irradiation or sham-irradiation (day 0). On days 2, 7, 14, 21, and 28 post-irradiation (day 0) mice were humanely euthanized. Blood, bone marrow, and sternebrae were then collected. This experiment was performed in duplicate for a total of n=6 mice/group/time point.
# Post-irradiation whole blood was obtained by terminal cardiocentesis. Blood samples were immediately transferred into EDTA tubes (Sarstedt Inc., Newton, N.C.) and gently rotated until the time of analysis. The tubes were analyzed for a complete blood count with differential and reticulocytes using the ADVIA 2120 (Siemens Medical Solutions Diagnostics, Dublin, Ireland), and Microsoft software version 5.9 (Microsoft Corp., Redmond, Wash.) to generate the data.
# Blood parameters were compared between treatment groups using an analysis of variance (ANOVA). The Wilcoxon test was also used for sensitivity and to potentially address data departures from normality. A longitudinal mixed model repeated measures was also implemented to provide a more complete data analysis of the sham-irradiated treatment groups' difference in overall time profile mean based on the blood parameters. Bone marrow data (megakaryocytes and grade) statistical analysis was carried out using a parametric test consisting of a general linear model analysis of variance (ANOVA with factors consisting of treatment group and pathologist) and the Kruskal-Wallis nonparametric test. The statistical data analysis was carried out using R software (Version 3.4.3, 2016) and the graphs made using GraphPad Prism version 7.03 (GraphPad Software, La Jolla, Calif.).
# [2] = Tolerability and body weight in the hamster mucositis study; assay type: in vivo, hamsters
# Experimental: Fifty-six (56) male Syrian Golden Hamsters were used in the study. Mucositis was induced by administering an acute radiation dose of 40 Gy directed to the left buccal cheek pouch on Day 0 at a rate of 2-2.5 Gy/min. Mucositis was evaluated clinically starting on Day 6 and continuing on alternate days until Day 28. Hamsters reaching a mucositis severity score of 4 or higher received buprenorphine (0.5 mg/kg) SC twice a day for 48 hours or until score dropped below 4.
# Dosing was scheduled as follows: for animals in Groups 1-4, animals were dosed with RRx-001 (1, 3, or 10 mg/kg) or vehicle (1:2 DMA:PEG400 vol:vol ratio) once a day (QD) on Days −4, −1, 1, 4, 7, 11, 14, 18, 21, and 25 via intraperitoneal (IP) administration; animals in Groups 5-7 were dosed QD with RRx-001 (1, 3, or 10 mg/kg) on Days −4, −1, 1, 8, 15, and 22.
# Dosing of all other groups continued as scheduled. Upon study conclusion, on Day 28, Animals were euthanized via CO2 inhalation and death was confirmed by monitoring heartbeat in accordance with USDA guidelines.
# HO-1 = assay: Western blot of HO-1 in U937 monocytes and macrophages; assay type: cell-based, human; settings: 3 mM RRx-001 for 16 hours
# Experimental: (§1) Expression of ARE proteins was assayed in hMSC, macrophages, and monocytes following in vitro irradiation of the cells, which were pretreated with RRx-001 or vehicle. Protein expression was assayed by Western blotting and protein quantification.
# (§2) hMSC were treated for 16 hours with […] RRx-001 or the vehicle control (0.05% DMSO), irradiated at 10 Gy or sham-irradiated and the protein collected 8 or 24 hours post-sham or irradiation. Human monocytic leukemic THP-1 and U937 cells were differentiated into macrophages with 50 nM Phorbol 12-myristate 13-acetate (PMA) for 24 hours before treatment. Differentiated and non-differentiated cells were treated with […] RRx-001 or 0.05% DMSO (vehicle control) for 16 hours prior to radiation. The cells were irradiated at 5 Gy or sham-irradiated and collected 4-8 hours later for both analysis. For each experiment, duplicates of each sample were run.
# SOD-1 = assay: Western blot of SOD-1 in U937 macrophages; assay type: cell-based, human; settings: 3 mM RRx-001 for 16 hours, sham and irradiated groups
# Experimental: as §1, §2
# SOD1 and 2 = assay: Western blot of ARE protein expression in hMSC: SOD1 and 2; assay type: cell-based, human; settings: 5 mM RRx-001 for 16 hours, 8 hours after 10 Gy irradiation
# Experimental: Antioxidant response element (ARE) genes such as heme oxygenase 1 (HO-1), NAD(P)H Dehydrogenase [Quinone] 1 (NQO-1) and Superoxide Dismutase (SOD) are involved in the detoxification and elimination of reactive oxidants.
# as §1, §2
# [3] = 7 Gy TBI, decrease below sham controls on days 7 and 14
# [4] = days 2 and 21 post-irradiation (7 Gy TBI)
compound,measurement,setting,value
"O=C(CBr)N1CC([N+](=O)[O-])([N+](=O)[O-])C1 [RRx-001, 2-bromo-1-(3,3-dinitroazetidin-1-yl)ethan-1-one]",cytokine expression (cytokine array),"[1]; THP-1 macrophage fraction, 3 mM RRx-001 for 16 hours, sham and 5 Gy irradiated",reduction in cytokines involved in inflammation
same,CCL5/RANTES expression (cytokine array),"[1]; THP-1 monocytes, 3 mM RRx-001 for 16 hours",induction
same,pro-inflammatory chemokine IL-8,[1]; macrophages,reduction
same,% HCT compared to the irradiated control,"CD2F1 male mice; 7 Gy TBI, day 14",significantly increased levels
same,ALC counts compared to the controls,"CD2F1 male mice; 7 Gy TBI, day 14",significantly increased
same,WBC counts compared to the controls,"CD2F1 male mice; 7 Gy TBI, day 14",significantly increased
same,% RETIC compared to control mice,"CD2F1 male mice; 7 Gy TBI, day 14, returned to baseline levels",significantly increased
same,% RETIC compared to the vehicle controls,"CD2F1 male mice; 7 Gy TBI, day 28",significantly increased
same,ANC compared to the control,"CD2F1 male mice; 7 Gy TBI, days 7 and 14",significantly increased
same,PLT compared to the control,"CD2F1 male mice; 7 Gy TBI, days 7 and 14",significantly increased
same,"hemoglobin, irradiated RRx-001 vs irradiated vehicle",CD2F1 male mice; [3],not significantly different
same,"red blood cells, irradiated RRx-001 vs irradiated vehicle",CD2F1 male mice; [3],not significantly different
same,absolute lymphocyte count (ALC) vs vehicle control,CD2F1 male mice; [4],No significant difference
same,absolute neutrophil count (ANC) vs vehicle control,CD2F1 male mice; [4],No significant difference
same,percent hematocrit (% HCT) vs vehicle control,CD2F1 male mice; [4],No significant difference
same,percent reticulocytes (% RETIC) vs vehicle control,CD2F1 male mice; [4],No significant difference
same,platelets (PLT) vs vehicle control,CD2F1 male mice; [4],No significant difference
same,white blood cells (WBC) vs vehicle control,CD2F1 male mice; [4],No significant difference
same,"platelets, overall mean over time (standard error)","CD2F1 male mice; sham-irradiated, 10 mg/kg IP, longitudinal mixed model repeated measures",1067.73 (32.26)
same,difference in the overall mean of platelets over time vs vehicle,"CD2F1 male mice; sham-irradiated, least-square means, p=0.01",statistically significant difference in the least-square means in favor of RRx-001-treatment
same,body weight,[2]; Groups 2 and 5 (10 mg/kg),lower weights than all other groups
same,body weight after cessation of dosing,"[2]; Groups 2 and 5 (10 mg/kg), in line with other groups by study termination",weight slowly recovered
same,body weight,"[2]; animals other than Groups 2 and 5 (1 and 3 mg/kg), duration of the study",steadily gained weight
same,tolerability,"[2]; highest dose 10 mg/kg IP, Groups 2 and 5, dosing discontinued after Day 1",adverse side effects
same,HO-1 production,"HO-1; U937 macrophages, sham and irradiated groups",increased HO-1 production
same,HO-1 expression,HO-1; U937 monocyte fraction,significant increase in HO-1
same,SOD-1 expression,SOD-1,no change
same,SOD1 and 2 expression,SOD1 and 2,slight increase
